According to US8889876B2, “Histone deacetylase inhibitors and uses thereof” (Jiangsu Hengyi Pharmaceutical Co., Ltd., priority 2008, dated 2014):

Columns and labels:
[1] = test system: Hep3B2.1-7 human liver cancer cells; assay: CCK-8 proliferation inhibition, Hep3B2.1-7; type: cell-based; conditions: CCK-8 method; for inhibition at 10 µM / inhibition at 100 µM: Homo sapiens, Hep3B
Procedure: (§1) Detecting the inhibition rate of the compound concentrations of 100 μM and 10 μM to Hut78 T-cell Leukemia cell, Jurkat E6-1 human T-cell lymphoma, PANC-1 human pancreatic cancer cells, A549 human lung cancer cells, K562 human chronic myeloid leukemia cells, Hep3B2.1-7 human liver cancer cells, MDA-MB-435s human breast cancer cells, Colo320 human rectal cancer cells and PC-3 human prostate cancer using CCK-8 method.

[2] = test system: Hut78 T-cell Leukemia cell; assay: CCK-8 proliferation inhibition, Hut78; type: cell-based; conditions: for inhibition at 10 µM / inhibition at 100 µM: Homo sapiens, read-out: Hut-78 (inhibition %); for inhibition at 10 µM: HuT78, 10 μM; for inhibition at 100 µM: HuT78, 100 μM
Procedure: as §1

[3] = test system: K562 human chronic myeloid leukemia cells; assay: CCK-8 proliferation inhibition, K562; type: cell-based; conditions: for inhibition at 10 µM / inhibition at 100 µM: Homo sapiens; for inhibition at 10 µM: K562, 10 μM; for inhibition at 100 µM: K562, 100 μM
Procedure: as §1

[4] = test system: PC-3 human prostate cancer; assay: CCK-8 proliferation inhibition, PC-3; type: cell-based; conditions: CCK-8 method; for inhibition at 10 µM / inhibition at 100 µM: Homo sapiens
Procedure: as §1

[5] = test system: MDA-MB-435s human breast cancer cells; assay: CCK-8 proliferation inhibition, MDA-MB-435s; type: cell-based; conditions: CCK-8 method; for inhibition at 10 µM / inhibition at 100 µM: Homo sapiens, MDA-MB-435S
Procedure: as §1

[6] = test system: histone deacetylase; assay: in vitro inhibition of histone deacetylase by HDAC inhibitor screening kit (Biovision K340-100); type: biochemical
Procedure: An assay for determining the in vitro inhibition activity of the compound on histone deacetylase is conducted according to the specification of HDAC inhibitor screeing kid (Biovision Company/Catalog #K340-100). […]

[7] = test system: Colo320 human rectal cancer cells; assay: CCK-8 proliferation inhibition, Colo320; type: cell-based; conditions: CCK-8 method; for inhibition at 10 µM / inhibition at 100 µM: Homo sapiens, COLO 320
Procedure: as §1

[8] = test system: PANC-1 human pancreatic cancer cells; assay: CCK-8 proliferation inhibition, PANC-1; type: cell-based; conditions: for inhibition at 10 µM / inhibition at 100 µM: Homo sapiens; for inhibition at 10 µM: PANC-1, 10 μM; for inhibition at 100 µM: PANC-1, 100 μM
Procedure: as §1

[9] = test system: Jurkat E6-1 human T-cell lymphoma; assay: CCK-8 proliferation inhibition, Jurkat E6-1; type: cell-based; conditions: for inhibition at 10 µM / inhibition at 100 µM: Homo sapiens; for inhibition at 10 µM: Jurkat E6.1, 10 μM; for inhibition at 100 µM: Jurkat E6.1, 100 μM
Procedure: as §1

[10] = test system: A549 human lung cancer cells; assay: CCK-8 proliferation inhibition, A549; type: cell-based; conditions: CCK-8 method; for inhibition at 10 µM / inhibition at 100 µM: Homo sapiens, A549
Procedure: as §1

Row | SMILES | Inhibition rate(%) ([6]; 3.91 μM) | Inhibition rate(%) ([6]; 62.5 μM) | Inhibition rate(%) ([6]; 2 mM) | inhibition at 10 µM ([1]; compound concentration 10 μM) [%] | inhibition at 100 µM ([1]; compound concentration 100 μM) [%] | inhibition at 10 µM [2] [%] | inhibition at 100 µM [2] [%] | inhibition at 10 µM [3] [%] | inhibition at 100 µM [3] [%] | inhibition at 10 µM ([4]; compound concentration 10 μM) [%] | inhibition at 100 µM ([4]; compound concentration 100 μM) [%] | inhibition at 10 µM ([5]; compound concentration 10 μM) [%] | inhibition at 100 µM ([5]; compound concentration 100 μM) [%] | inhibition at 10 µM ([7]; compound concentration 10 μM) [%] | inhibition at 100 µM ([7]; compound concentration 100 μM) [%] | inhibition at 10 µM [8] [%] | inhibition at 100 µM [8] [%] | inhibition at 10 µM [9] [%] | inhibition at 100 µM [9] [%] | inhibition at 10 µM ([10]; compound concentration 10 μM) [%] | also measured
1 | COc1cc(CCC(=O)NCc2ccc(C(=O)Nc3cccnc3N)cc2)cc(OC)c1OC [V-54, N-(2-amino-3-pyridyl)-4-[3-(3,4,5-methoxyphenyl)propionylaminomethyl]benzamide] | 2.2 | 3.1 | 42.5 | – | – | – | – | – | – | – | – | – | – | – | – | – | – | – | – | – | Hep3B (inhibition %) ([1]; compound concentration 10 μM): 4.2%; Hep3B (inhibition %) ([1]; compound concentration 100 μM): 4.7%; Hut-78 (inhibition %) ([2]; 10 μM): 0.9%; Hut-78 (inhibition %) ([2]; 100 μM): 10.6%; K562 (inhibition %) ([3]; 10 μM): 12.7%; K562 (inhibition %) ([3]; 100 μM): 13.1%; PC-3 (inhibition %) ([4]; compound concentration 10 μM): 5.6%; PC-3 (inhibition %) ([4]; compound concentration 100 μM): 5.9%; 435s(inhibition %) ([5]; compound concentration 10 μM): 14.6%; 435s(inhibition %) ([5]; compound concentration 100 μM): 14.0%; Colo320 (inhibition %) ([7]; compound concentration 10 μM): 6.8%; Colo320 (inhibition %) ([7]; compound concentration 100 μM): 2.7%; PANC-1 (inhibition %) ([8]; 10 μM): 15.6%; PANC-1 (inhibition %) ([8]; 100 μM): 11.7%; Jurkat E6-1 (inhibition %) ([9]; 10 μM): 2.9%; Jurkat E6-1 (inhibition %) ([9]; 100 μM): 5.8%; A549 (inhibition %) ([10]; compound concentration 10 μM): 7.5%; A549 (inhibition %) ([10]; compound concentration 100 μM): 12.8%
2 | COc1cccc(/C=C/C(=O)NCc2ccc(C(=O)Nc3cccnc3N)cc2)c1 [V-91, N-(2-amino-3-pyridyl)-4-[(3-methoxycinnamoyl)aminomethyl]benzamide] | 10.1 | 47.8 | 81.8 | 7.8 | 63.6 | 26.8 | 68.3 | 37.4 | 81.6 | 7.9 | 24.2 | 25.9 | 71.2 | 9.6 | 27.6 | 2.4 | 8.5 | 23.7 | 89.9 | 17.7 | inhibition at 100 µM ([10]; compound concentration 100 μM): 48.9%
3 | Nc1ncccc1NC(=O)c1ccc(CNC(=O)OCc2ccccc2)cc1 [V-8, N-(2-amino-3-pyridyl)-4-(benzyloxyacylaminomethyl)benzamide] | 6.3 | 10.3 | 35.3 | -10.2 | -12.1 | 6.4 | 15.8 | -1.3 | 38.1 | 5.2 | 15.9 | -20.7 | -10.4 | 7.1 | 16.8 | 14.4 | 11.9 | 5.4 | 23.7 | -43.9 | inhibition at 100 µM ([10]; compound concentration 100 μM): -19.4%

Continued, in another order:

Row | Inhibition rate(%) ([6]; 3.91 μM) | Inhibition rate(%) ([6]; 62.5 μM) | Inhibition rate(%) ([6]; 2 mM) | SMILES | inhibition at 10 µM ([1]; compound concentration 10 μM) [%] | inhibition at 100 µM ([1]; compound concentration 100 μM) [%] | inhibition at 10 µM [2] [%] | inhibition at 100 µM [2] [%] | inhibition at 10 µM [3] [%] | inhibition at 100 µM [3] [%] | inhibition at 10 µM ([4]; compound concentration 10 μM) [%] | inhibition at 100 µM ([4]; compound concentration 100 μM) [%] | inhibition at 10 µM ([5]; compound concentration 10 μM) [%] | inhibition at 100 µM ([5]; compound concentration 100 μM) [%] | inhibition at 10 µM ([7]; compound concentration 10 μM) [%] | inhibition at 100 µM ([7]; compound concentration 100 μM) [%] | inhibition at 10 µM [8] [%] | inhibition at 100 µM [8] [%] | inhibition at 10 µM [9] [%] | inhibition at 100 µM [9] [%] | inhibition at 10 µM ([10]; compound concentration 10 μM) [%] | also measured
4 | 14.3 | 48.0 | 55.3 | COc1ccc(/C=C/C(=O)NCc2ccc(C(=O)Nc3cccnc3N)cc2)cc1OC [V-93, N-(2-amino-3-pyridyl)-4-[(3,4-dimethoxycinnamoyl)aminomethyl]benzamide] | 4.9 | 26.8 | 27.2 | 64.7 | 23.7 | 67.3 | 41.6 | 80.6 | 16.3 | 48.5 | 6.1 | 13.1 | 9.8 | 16.6 | 23.4 | 93.1 | -2.5 | inhibition at 100 µM ([10]; compound concentration 100 μM): 3.4%
5 | 24.0 | 56.1 | 65.7 | COc1cccc(/C=C/C(=O)NCc2ccc(C(=O)Nc3ccncc3N)cc2)c1 [V-92] | 20.2 | 80.5 | 46.2 | 78.5 | 68.7 | 91.1 | 41 | 73.8 | 23.7 | 77.7 | 6 | 65.5 | 6.3 | 33.3 | 87.5 | 95.5 | 2.2 | inhibition at 100 µM ([10]; compound concentration 100 μM): 54.2%
